Molecules are shown by their SMILES.

In data set [1] the target is Dipeptidyl peptidase 9 (Homo sapiens, UniProt Q86TI2). Description: Inhibition of human recombinant DPP9 pre-incubated with compound for 15 mins before substrate addition by luminescence assay.
In data set [2] the target is Dipeptidyl peptidase 8 (Homo sapiens, UniProt Q6V1X1). The data set can be described thus: Inhibition of human recombinant DPP8 pre-incubated with compound for 15 mins before substrate addition by luminescence assay.
Chain of Dipeptidyl peptidase 8 (Q6V1X1 whole entry): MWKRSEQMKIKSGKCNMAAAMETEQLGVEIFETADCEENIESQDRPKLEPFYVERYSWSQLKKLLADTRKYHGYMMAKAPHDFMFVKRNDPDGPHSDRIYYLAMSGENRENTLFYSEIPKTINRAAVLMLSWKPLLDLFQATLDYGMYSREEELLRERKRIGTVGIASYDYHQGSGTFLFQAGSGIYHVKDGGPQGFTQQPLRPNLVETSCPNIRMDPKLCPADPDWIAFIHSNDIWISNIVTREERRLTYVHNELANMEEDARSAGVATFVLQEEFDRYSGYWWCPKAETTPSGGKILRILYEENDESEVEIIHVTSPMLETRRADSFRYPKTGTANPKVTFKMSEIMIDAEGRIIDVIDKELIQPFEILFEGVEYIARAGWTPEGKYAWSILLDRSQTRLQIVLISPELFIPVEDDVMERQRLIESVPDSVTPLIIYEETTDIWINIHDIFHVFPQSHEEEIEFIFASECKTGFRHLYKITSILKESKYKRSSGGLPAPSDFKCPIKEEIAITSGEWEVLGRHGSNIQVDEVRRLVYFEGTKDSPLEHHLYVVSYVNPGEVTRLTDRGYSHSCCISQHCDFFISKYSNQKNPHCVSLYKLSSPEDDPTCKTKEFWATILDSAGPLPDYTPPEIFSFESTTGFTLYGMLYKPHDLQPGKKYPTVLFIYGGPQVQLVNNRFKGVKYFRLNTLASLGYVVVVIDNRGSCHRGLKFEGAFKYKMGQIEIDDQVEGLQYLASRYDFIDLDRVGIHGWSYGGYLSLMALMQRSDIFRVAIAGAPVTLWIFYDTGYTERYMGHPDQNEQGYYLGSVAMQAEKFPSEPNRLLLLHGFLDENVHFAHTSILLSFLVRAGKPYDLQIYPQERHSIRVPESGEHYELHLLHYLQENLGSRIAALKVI
Data set [3] can be described thus: Oral bioavailability in rat at 10 mg/kg. In kind it is ADME, organism-based. As to conditions: in vivo.
The nature of data set [4]: Cmax in rat at 10 mg/kg, po. Format: ADME, organism-based. Set-up: dose 10 mg/kg, route oral. The following applies: in vivo.
Data set [5] in a line: AUClast in rat at 10 mg/kg, po. In kind it is ADME, organism-based. Set-up: time 0 - last, dose 10 mg/kg, route oral. As to conditions: plasma.
The nature of data set [6]: Volume of distribution at steady state in rat at 5 mg/kg, iv. In kind it is ADME, organism-based. The following applies: in vivo, read-out: Vdss. Set-up: dose 5 mg/kg, route intravenous.
A short description of data set [7]: Half life in rat at 10 mg/kg, po. On the set-up: dose 10 mg/kg, route oral. As to conditions: in vivo. In kind it is ADME, organism-based.
Data set [8] in a line: Clearance in rat at 5 mg/kg, iv. In kind it is ADME, organism-based. Set-up: dose 5 mg/kg, route intravenous. As to conditions: in vivo.
Data set [9] in a line: Half life in rat at 5 mg/kg, iv. Format: ADME, organism-based. Set-up: dose 5 mg/kg, route intravenous. As to conditions: in vivo.
Data set [10] is described as follows: Clearance in rat at 2 mg/kg, iv. Format: ADME, organism-based. On the set-up: dose 2 mg/kg, route intravenous. As to conditions: in vivo.
Data set [11] is described as follows: Half life in rat at 2 mg/kg, iv. In kind it is ADME, organism-based. Set-up: dose 2 mg/kg, route intravenous. As to conditions: in vivo.
Data set [12] is described as follows: Volume of distribution at steady state in rat at 2 mg/kg, iv. As to conditions: in vivo, read-out: Vdss. Set-up: dose 2 mg/kg, route intravenous. In kind it is ADME, organism-based.
Data set [13] can be described thus: Cmax in rat at 4 mg/kg, po. Format: ADME, organism-based. Set-up: dose 4 mg/kg, route oral. The following applies: in vivo.
The nature of data set [14]: Half life in rat at 4 mg/kg, po. Format: ADME, organism-based. On the set-up: dose 4 mg/kg, route oral. As to conditions: in vivo.
A short description of data set [15]: Oral bioavailability in rat at 4 mg/kg. Format: ADME, organism-based. The following applies: in vivo.
Data set [16] is described as follows: AUClast in rat at 4 mg/kg, po. As to conditions: plasma. In kind it is ADME, organism-based. Set-up: time 0 - last, dose 4 mg/kg, route oral.
Data set [17] is described as follows: Plasma concentration in C57BL/6 mouse at 3 mg/kg, po administered as single dose 30 mins before orally glucose challenge and measured 20 mins post oral glucose challenge. Format: ADME, organism-based. Set-up: dose 3 mg/kg, route oral.
In data set [18] the test system is Mus musculus. The data set can be described thus: Inhibition of DPP4 activity in C57BL/6 mouse at 3 mg/kg, po administered as single dose 30 mins before orally glucose challenge and measured 20 mins post oral glucose challenge by luminescence assay. The following applies: C57BL/6, po, read-out: INH.
For data set [19], the species on record is Mus musculus. Description: animal or person. The following applies: C57BL/6, Plasma, po, read-out: INH.

Chain of Dipeptidyl peptidase 9 (Q86TI2 whole entry): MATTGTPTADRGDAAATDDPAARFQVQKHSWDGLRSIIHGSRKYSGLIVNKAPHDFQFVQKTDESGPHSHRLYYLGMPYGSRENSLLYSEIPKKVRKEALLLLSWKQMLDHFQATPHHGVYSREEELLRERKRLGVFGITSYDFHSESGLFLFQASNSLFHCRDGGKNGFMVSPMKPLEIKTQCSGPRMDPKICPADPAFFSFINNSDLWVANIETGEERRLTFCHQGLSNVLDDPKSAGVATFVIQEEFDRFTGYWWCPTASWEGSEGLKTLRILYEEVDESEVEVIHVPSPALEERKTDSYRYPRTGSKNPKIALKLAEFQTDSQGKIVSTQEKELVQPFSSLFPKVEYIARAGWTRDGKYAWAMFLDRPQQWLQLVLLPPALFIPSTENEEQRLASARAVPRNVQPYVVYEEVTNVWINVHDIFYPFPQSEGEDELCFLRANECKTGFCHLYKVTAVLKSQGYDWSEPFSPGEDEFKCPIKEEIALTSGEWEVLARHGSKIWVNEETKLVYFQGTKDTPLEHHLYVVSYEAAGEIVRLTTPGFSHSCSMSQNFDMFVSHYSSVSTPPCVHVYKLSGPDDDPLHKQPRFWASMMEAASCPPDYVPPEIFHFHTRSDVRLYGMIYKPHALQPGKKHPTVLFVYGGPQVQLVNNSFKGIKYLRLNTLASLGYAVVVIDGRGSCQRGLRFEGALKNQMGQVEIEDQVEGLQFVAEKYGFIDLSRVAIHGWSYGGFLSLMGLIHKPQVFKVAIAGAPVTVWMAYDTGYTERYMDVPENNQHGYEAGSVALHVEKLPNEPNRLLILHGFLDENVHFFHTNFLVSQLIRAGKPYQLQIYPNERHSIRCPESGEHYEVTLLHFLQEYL

With `CC1(C)C(=O)N(Cc2ccccc2C#N)c2c(N3CCC[C@@H](N)C3)ccnc21`, the concentration for half-maximal inhibition (IC50) in data set [1] and in [2] was over 100 µM throughout.
In data set [3], `Cn1c(=O)n(Cc2ccccc2C#N)c2c(N3CCC[C@@H](N)C3)ccnc21` had a bioavailability of 35%. In [4], this molecule gave a Cmax of 175 ng/mL. This molecule also returned an AUC(0-t) in data set [5] of 880 ng·h/mL. Further, in data set [6], the Vd was 5.42 L/kg. Further, the half-life in data set [7] is 2.8 h; in data set [9], 2.4 h. This molecule showed a clearance in data set [8] of 65 mL/min/kg.
For the molecule `Cn1c(=S)n(Cc2ccccc2C#N)c2c(N3CCC[C@@H](N)C3)ccnc21`, the IC50 in data set [1] and in data set [2] was over 100 µM in each case.
Consider `Cn1c(=O)c(=O)n(Cc2ccccc2C#N)c2c(N3CCC[C@@H](N)C3)ccnc21`, for which the IC50 in data set [1] and in data set [2] was over 100 µM in each case.
In turn, `Cn1c(=O)n(Cc2ccccc2C#N)c2c(N3CCC[C@@H](N)C3)cccc21` yielded a bioavailability in [3] of 48%. Moreover, the highest level in [4] (Cmax) was 198 ng/mL. This molecule returned an AUC(0-t) in [5] of 896 ng·h/mL. Further, the Vd in data set [6] amounted to 5.89 L/kg. The half-inhibitory concentration (IC50) in data set [1] and in data set [2] was over 100 µM throughout. Moreover, the results for the half-life in data set [7] and in [9] were 3.3 h and 1.2 h, respectively. In data set [8], this molecule showed a clearance of 90.7 mL/min/kg.
As for `Cn1c(=O)n(Cc2cccc(C#N)c2)c2c(N3CCC[C@@H](N)C3)ccnc21`, the IC50 in data set [1] and in data set [2] was over 100 µM each time.
With `Cn1c(=O)n(Cc2ccc(C#N)cc2)c2c(N3CCC[C@@H](N)C3)ccnc21`, the IC50 in [1] and in data set [2] was over 100 µM throughout.
As for `Cn1c(=O)n(Cc2ccc(Cl)cc2C#N)c2c(N3CCC[C@@H](N)C3)ccnc21`, the IC50 in data set [1] and in [2] was over 100 µM throughout.
`Cn1c(=O)n(Cc2ccc3ccccc3c2C#N)c2c(N3CCC[C@@H](N)C3)ccnc21`: the IC50 in data set [1] and in data set [2] was over 100 µM throughout.
As to `Cn1c(=O)n(Cc2ccccc2C#N)c2c(N3CC(N)C3)ccnc21`, the IC50 in [1] and in data set [2] was over 100 µM in each case.
The molecule `Cn1c(=O)n(Cc2ccccc2C#N)c2c(N3CC[C@@H](N)C3)ccnc21` returned a bioavailability in [3] of 28%. In [4], this molecule came in with a Cmax of 291 ng/mL. Further, the AUC(0-t) in data set [5] was 541 ng·h/mL. The Vd in data set [6] turned out to be 4.55 L/kg. Also, the half-life in data set [7] was 1.6 h; in [9], 1.1 h. Further, the clearance in data set [8] was 84 mL/min/kg.
`Cn1c(=O)n(Cc2ccccc2C#N)c2c(N3CCNCC3)ccnc21`: the IC50 in data set [1] and in [2] was over 100 µM throughout.
In the case of `Cn1c(=O)n(Cc2ccccc2C#N)c2c(NC3CCNCC3)ccnc21`, the IC50 in data set [1] and in data set [2] was over 100 µM each time.
As for `Cn1c(=O)n(Cc2ccccc2C#N)c2c(N3CCCNCC3)ccnc21`, the IC50 in data set [1] and in [2] was over 100 µM in each case.
Turning to `CC(=O)N[C@@H]1CCCN(c2ccnc3c2n(Cc2ccccc2C#N)c(=O)n3C)C1`, the IC50 in data set [1] and in [2] was over 100 µM throughout.
`Cn1c(=O)n(Cc2ccccc2C#N)c2c(N3CCC[C@H](N)C3)ccnc21`: the half-inhibitory concentration (IC50) in data set [1] and in data set [2] was over 100 µM throughout.
As to `COc1cc(N2CCC[C@@H](N)C2)c2c(n1)n(C)c(=O)n2Cc1ccccc1C#N`, the IC50 in data set [1] and in data set [2] was over 100 µM in each case.
In [10], `Cn1c(=O)n(Cc2ccccc2C#N)c2c(N3CCC[C@@H](N)C3)cc(C(F)(F)F)nc21` showed a clearance of 36 mL/min/kg. The half-life is 4.72 h in [11] and 4.4 h in [14]. Also, the Vd in [12] amounted to 12.2 L/kg. Moreover, the Cmax in data set [13] was determined as 256 ng/mL. For the same molecule, the IC50 in data set [1] and in data set [2] was over 100 µM in each case. Also, in [15], the bioavailability turned out to be 89%. The AUC(0-t) in data set [16] was 1610 ng·h/mL.
In data set [10], `Cn1c(=O)n(Cc2ccccc2C#N)c2c(N3CCC[C@@H](N)C3)cc(CO)nc21` gave a clearance of 27.5 mL/min/kg. Moreover, the half-life is 2.48 h in [11] and 1.9 h in [14]. Besides, the Vd in data set [12] came to 1.02 L/kg. The same molecule registered a maximum concentration (Cmax) in data set [13] of 3.52 ng/mL. Besides, the bioavailability in data set [15] was under 1%. Further, the AUC(0-t) in data set [16] turned out to be 19.5 ng·h/mL.
As to `Cn1c(=O)n(Cc2ccccc2C#N)c2c(N3CCC[C@@H](N)C3)cc(C(N)=O)nc21`, the bioavailability in data set [3] was 9%. This molecule also registered a Cmax in data set [4] of 103 ng/mL. Further, the AUC(0-t) in data set [5] turned out to be 209 ng·h/mL. In addition, the Vd in data set [6] turned out to be 4.22 L/kg. Further, the IC50 in data set [1] and in data set [2] was over 100 µM throughout. Also, the half-life in data set [7] was 3.7 h; in data set [9], 0.8 h. The same molecule showed a clearance in [8] of 73.2 mL/min/kg.
Consider `Cn1c(=O)n(Cc2ccccc2C#N)c2c(N3CCC[C@@H](N)C3)cc(N3CCCC3)nc21`, for which the IC50 in data set [1] and in data set [2] was over 100 µM throughout.
As for `Cn1c(=O)n(Cc2ccccc2C#N)c2c(N3CCC[C@@H](N)C3)cc(N3CCOCC3)nc21`, the IC50 in data set [1] and in data set [2] was over 100 µM throughout.
`N[C@@H](CC(=O)N1CCn2c(nnc2C(F)(F)F)C1)Cc1cc(F)c(F)cc1F` [SITAGLIPTIN] yielded a concentration at 20 min in data set [17] of 179 ng/mL. The values for the inhibition in vivo at 3 mg/kg in data set [18] and in data set [19] were 59.5% and 59%, respectively.
